# Measured values as given in patent US8765748B2, “Indazolyl, benzimidazolyl, benzotriazolyl substituted indolinone derivatives as kinase inhibitors useful in the treatment of cancer” (University Health Network, priority 2007, dated 2014).
# Key:
# Assay in all cases: Kinase Selectivity Assay (CEREP, HTRF)
# Type in all cases: biochemical
# FLT-3 kinase = molecular target: T1, FLT-3 kinase (Homo sapiens, UniProt P36888); conditions: read-out: % Inhibition at 10 μM Concentration, FLT-3
# T1 sequence (P36888 27-993): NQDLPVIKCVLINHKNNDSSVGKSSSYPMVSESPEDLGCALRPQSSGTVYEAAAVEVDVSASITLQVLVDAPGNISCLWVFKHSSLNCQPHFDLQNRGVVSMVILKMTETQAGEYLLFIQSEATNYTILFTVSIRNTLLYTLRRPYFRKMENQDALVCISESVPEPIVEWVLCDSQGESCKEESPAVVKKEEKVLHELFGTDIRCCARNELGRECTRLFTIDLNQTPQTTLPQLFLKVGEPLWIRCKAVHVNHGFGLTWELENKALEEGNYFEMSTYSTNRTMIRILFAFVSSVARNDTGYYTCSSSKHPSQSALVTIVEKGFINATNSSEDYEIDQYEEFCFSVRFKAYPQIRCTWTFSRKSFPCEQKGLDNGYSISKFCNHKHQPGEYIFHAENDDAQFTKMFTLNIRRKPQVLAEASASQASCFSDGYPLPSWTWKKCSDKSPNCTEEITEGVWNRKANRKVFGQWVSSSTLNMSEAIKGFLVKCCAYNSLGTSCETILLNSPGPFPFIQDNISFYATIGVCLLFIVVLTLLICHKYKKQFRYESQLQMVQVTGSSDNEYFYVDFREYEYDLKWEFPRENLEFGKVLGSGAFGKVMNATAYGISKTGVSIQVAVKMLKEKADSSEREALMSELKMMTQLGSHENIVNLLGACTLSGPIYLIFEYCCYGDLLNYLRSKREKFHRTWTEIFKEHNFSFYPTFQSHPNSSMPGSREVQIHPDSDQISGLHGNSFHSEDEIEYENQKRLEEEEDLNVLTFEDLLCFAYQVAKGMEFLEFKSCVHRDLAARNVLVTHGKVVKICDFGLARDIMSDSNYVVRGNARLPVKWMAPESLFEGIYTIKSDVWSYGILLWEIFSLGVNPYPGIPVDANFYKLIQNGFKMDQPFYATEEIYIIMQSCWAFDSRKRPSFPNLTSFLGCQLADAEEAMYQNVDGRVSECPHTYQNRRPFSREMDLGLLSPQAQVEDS
# Procedure: (§1) kinase, ROCK2, RSK2, Src kinase, Syk, and TRKA. The % Inhibition was determined
# PKCa = PKCa (Homo sapiens, UniProt P17252); conditions: read-out: % Inhibition at 10 μM Concentration, PKCalpha
# Procedure: as §1
# CDK2 (cycE) = molecular target: T2, CDK2 (cycE) (Homo sapiens, UniProt P24941); conditions: read-out: % Inhibition at 10 μM Concentration, CDK2 (cycE)
# T2 construct: CEREP, France (ran the assays)
# Procedure: as §1
# CaMK2a = molecular target: T3, CaMK2a (Homo sapiens, UniProt Q9UQM7); conditions: read-out: % Inhibition at 10 μM Concentration, CaMK2alpha
# T3 construct: CEREP, France (ran the assays)
# Procedure: as §1
# Akt1/PKBa = molecular target: T4, Akt1/PKBa (Homo sapiens, UniProt P31749); conditions: read-out: % Inhibition at 10 μM Concentration, Akt1/PKBalpha
# T4 construct: CEREP, France (ran the assays)
# Procedure: as §1
# Syk = Syk (Homo sapiens, UniProt P43405); conditions: read-out: % Inhibition at 10 μM Concentration, Syk
# Procedure: as §1
# EphB4 kinase = molecular target: T5, EphB4 kinase (Homo sapiens, UniProt P54760); conditions: read-out: % Inhibition at 10 μM Concentration, EphB4
# T5 construct: CEREP, France (ran the assays)
# T5 sequence (P54760 16-987): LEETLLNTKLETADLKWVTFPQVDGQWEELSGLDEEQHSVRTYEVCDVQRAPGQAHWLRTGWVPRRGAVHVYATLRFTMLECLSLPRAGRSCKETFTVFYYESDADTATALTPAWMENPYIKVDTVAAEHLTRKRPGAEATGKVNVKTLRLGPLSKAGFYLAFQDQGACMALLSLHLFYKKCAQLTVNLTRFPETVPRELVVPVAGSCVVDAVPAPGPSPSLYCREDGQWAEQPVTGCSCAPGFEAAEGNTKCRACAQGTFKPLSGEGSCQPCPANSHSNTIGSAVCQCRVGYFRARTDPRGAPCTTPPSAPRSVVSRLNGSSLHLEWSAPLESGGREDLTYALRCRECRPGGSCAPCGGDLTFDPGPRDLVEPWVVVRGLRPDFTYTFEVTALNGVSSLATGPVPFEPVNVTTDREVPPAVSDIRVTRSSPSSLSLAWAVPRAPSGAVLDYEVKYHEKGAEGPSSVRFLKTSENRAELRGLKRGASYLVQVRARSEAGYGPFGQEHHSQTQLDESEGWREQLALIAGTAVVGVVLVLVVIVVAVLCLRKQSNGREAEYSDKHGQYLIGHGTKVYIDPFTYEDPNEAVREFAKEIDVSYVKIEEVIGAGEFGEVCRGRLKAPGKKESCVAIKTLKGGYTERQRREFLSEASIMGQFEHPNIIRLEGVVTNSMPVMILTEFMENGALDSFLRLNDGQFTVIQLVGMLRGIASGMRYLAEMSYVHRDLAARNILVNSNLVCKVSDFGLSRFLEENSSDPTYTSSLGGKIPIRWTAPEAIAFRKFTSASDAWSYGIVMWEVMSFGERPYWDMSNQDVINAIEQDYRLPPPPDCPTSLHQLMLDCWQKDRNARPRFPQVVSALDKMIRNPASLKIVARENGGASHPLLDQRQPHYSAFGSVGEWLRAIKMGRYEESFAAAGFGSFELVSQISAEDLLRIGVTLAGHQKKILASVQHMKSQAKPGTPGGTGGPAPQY
# Procedure: as §1
# ERK2 (P42mapk) = molecular target: T6, ERK2 (P42mapk) (Homo sapiens, UniProt P28482); conditions: read-out: % Inhibition at 10 μM Concentration, ERK (P42mapk)
# T6 construct: CEREP, France (ran the assays)
# Procedure: as §1
# T4 sequence (P31749 whole entry): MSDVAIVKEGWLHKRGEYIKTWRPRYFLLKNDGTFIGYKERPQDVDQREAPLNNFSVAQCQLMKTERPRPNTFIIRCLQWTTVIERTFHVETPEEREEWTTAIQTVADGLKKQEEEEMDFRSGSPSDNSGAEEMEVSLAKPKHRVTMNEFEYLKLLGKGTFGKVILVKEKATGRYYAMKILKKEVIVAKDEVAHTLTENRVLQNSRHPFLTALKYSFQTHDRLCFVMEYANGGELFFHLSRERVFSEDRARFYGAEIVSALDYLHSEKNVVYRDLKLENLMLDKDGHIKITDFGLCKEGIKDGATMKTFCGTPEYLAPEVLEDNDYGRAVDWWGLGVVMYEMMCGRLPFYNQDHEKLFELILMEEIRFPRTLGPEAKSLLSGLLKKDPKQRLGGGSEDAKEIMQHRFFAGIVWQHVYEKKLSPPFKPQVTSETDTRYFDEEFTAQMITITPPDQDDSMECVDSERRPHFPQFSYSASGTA
# T6 sequence (P28482 whole entry): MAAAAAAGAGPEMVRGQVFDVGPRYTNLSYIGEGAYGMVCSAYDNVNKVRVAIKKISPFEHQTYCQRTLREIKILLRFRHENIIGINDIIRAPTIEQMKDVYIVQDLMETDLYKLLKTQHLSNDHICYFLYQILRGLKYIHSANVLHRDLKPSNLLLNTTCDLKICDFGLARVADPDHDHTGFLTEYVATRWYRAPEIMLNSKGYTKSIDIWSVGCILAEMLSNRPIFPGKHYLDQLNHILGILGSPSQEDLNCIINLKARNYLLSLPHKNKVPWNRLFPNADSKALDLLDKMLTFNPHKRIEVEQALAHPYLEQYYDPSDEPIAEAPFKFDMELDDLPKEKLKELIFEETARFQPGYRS
# T3 sequence (Q9UQM7 whole entry): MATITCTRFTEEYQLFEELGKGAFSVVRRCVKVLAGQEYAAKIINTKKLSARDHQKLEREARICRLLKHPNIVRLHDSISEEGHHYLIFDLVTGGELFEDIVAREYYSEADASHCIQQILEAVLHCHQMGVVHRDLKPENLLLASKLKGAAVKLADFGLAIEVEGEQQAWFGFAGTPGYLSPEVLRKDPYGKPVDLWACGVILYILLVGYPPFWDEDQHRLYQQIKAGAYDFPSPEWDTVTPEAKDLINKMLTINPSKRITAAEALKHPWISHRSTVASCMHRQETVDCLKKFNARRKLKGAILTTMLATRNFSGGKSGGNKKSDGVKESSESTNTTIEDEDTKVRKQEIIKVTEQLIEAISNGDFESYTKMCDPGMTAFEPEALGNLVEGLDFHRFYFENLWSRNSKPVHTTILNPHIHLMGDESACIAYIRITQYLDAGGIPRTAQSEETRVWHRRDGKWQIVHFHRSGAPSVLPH
SMILES,inhibition at 10 µM (FLT-3 kinase),inhibition at 10 µM (PKCa),inhibition at 10 µM (CDK2 (cycE)),inhibition at 10 µM (CaMK2a),inhibition at 10 µM (Akt1/PKBa),inhibition at 10 µM (Syk),inhibition at 10 µM (EphB4 kinase),inhibition at 10 µM (ERK2 (P42mapk))
"O=C1Nc2ccccc2/C1=C\c1ccc2cn[nH]c2c1 [Example A5, (E)-3-((1H-indazol-6-yl)methylene)indolin-2-one]",76%,0%,16%,-3%,-4%,-3%,-5%,0%
"COc1ccc2c(c1)C(=Cc1ccc3c(-c4ccc(N5CCN(C)CC5)nc4)n[nH]c3c1)C(=O)N2 (mixture of isomers) [Example A97, (E and Z)-5-methoxy-3-((3-(6-(4-methylpiperazin-1-yl)pyridin-3-yl)-1H-indazol-6-yl)methylene)indolin-2-one]",100%,9%,3%,14%,-4%,21%,6%,-9%
"O=C1Nc2ccccc2C1=Cc1ccc2c(/C=C/c3ccccn3)n[nH]c2c1 (mixture of isomers) [Example A41, (E and Z)-3-((3-((E)-2-(pyridin-2-yl)vinyl)-1H-indazol-6-yl)methylene)indolin-2-one]",100%,2%,8%,31%,-3%,70%,85%,14%
"O=C1Nc2ccccc2/C1=C\c1ccc2[nH]nnc2c1 [Example A1, (E)-3-((1H-benzo[d][1,2,3]triazol-5-yl)methylene)indolin-2-one]",93%,9%,10%,4%,-3%,-2%,5%,3%
"O=C1Nc2ccccc2/C1=C\c1ccc2c(/C=C/c3ccccc3Cl)n[nH]c2c1 [Example A60, (E)-3-((3-((E)-2-chlorostyryl)-1H-indazol-6-yl)methylene)indolin-2-one]",10%,-1%,5%,-2%,-14%,–,-14%,2%
